Entries after “also recorded” stand apart in the source; their conditions may differ. Each block holds one molecule with its values, some of them ahead of it.
Key:
[1] = tested on: Human aortic smooth muscle cells; assay: Smooth muscle cell proliferation assay (anti-proliferation assay, perlecan); type: cell-based; conditions: for IC50: Homo sapiens, read-out: Proliferation Data, average IC50
Procedure: Human aortic smooth muscle cells (Clonetics) were used. Cells were grown in basal medium containing 5% fetal bovine serum supplemented with growth factors, basic fibroblast growth factor, epidermal growth factor and insulin. […] The cells were then serum starved for 24 h to induce quiescence. Fresh growth medium containing no compound or 10 μM compound was then added and further incubated for 24 h. Cell number was determined by using a cell proliferation assay kit (Celltiter96 AQueous from Promega).

cells = assay: Cytotoxicity / lactate dehydrogenase assay and visual observation of cells; type: cell-based
Procedure: Assays for determining the activity of compounds capable of cytotoxic activity include those taught in herein and others that are well known in the art. In general, to determine if there is cytotoxic activity associated with a compound, cells of a particular type, in a growing stage or a quiescient stage, are treated with the compound of interest. Various parameters of cell death or cessation are used to measure the effects of the compound. For example, the amount of nucleic acid or protein synthesis can be measured or visual observation of the state of the cells, such as release from the substrate, can be used to measure the state of the cells.
An appropriate number of cells are plated in four 96-well plates, one plate for “day 0” and three plates for days 1–3. Cells are treated with at least one compound of the present invention in varying concentrations with and without the apoptosis inducer cisplatin (2 μM) (“+cis” or “−cis”). Unteated cells are also assayed with and without cisplatin. After transfection, the plates are incubated at 37° C. overnight.
An appropriate number of cells are plated in four 96-well plates, one plate for “day 0” and three plates for days 1–3. Cells are treated with at least one compound of the present invention in varying concentrations. The negative control cells have normal media conditions, a duplicate set of wells is treated with the composition in which the compound is provided, but there is no added compound and the positive control cells are treated with the apoptosis inducer cisplatin (2 μM). All of the cells are transfected with a vector having a promoter that is responsive to apoptosis conditions. When apoptosis occurs, the promoter is turned on and the lactic dehydrogenase gene is activated and the enzyme protein is made and active. Activity is easily detected with a color change. After transfection, the plates are incubated at 37° C. overnight.
About 8 mls of warmed alpha MEM LDH lysis buffer (2% Triton X100) and about 8 mls of culture media (½ dilution) are combined. Two 96-well v-bottom plates are prepared, one labeled “lysis” and one labeled “supernatant.” To lyse the cells, about 200 μl Alpha MEM lysis buffer (diluted ½) is added to one test plate from which the supernatant has been removed and added to the plate labeled supernatant. After mixing, about 200 μl of lysed cells are transferred to the lysis plate. Both the lysis and supernatant plates are centrifuged at about 1600 rpm for about 10 min. After centrifugation, about 100 μl of both the supernatant or lysate is transferred to corresponding 96-well flat-bottomed plates.
The assay for cytotoxicity uses the Cytotoxicity Detection Kit (LDH) from Roche Diagnostics Corp. (Indianapolis, Ind.). Using the directionts provided, the dye solution is mixed and added each well of the lysate and supernatant plate and incubated for up to 20–25 min at 15–25° C. in the dark.

IL6 = assay: Inflammation Data of Table 8: IL6 production compared to cells that did not receive compound (stimulus AGE or TNF not given); type: cell-based
From the text: Additional bioactivity data for compounds of the present invention are presented in Table 8, where compounds that have at least the activity of effecting cellular proliferation or at least the activity of modulating inflammation activity, as measured by the assays taught herein, are provided. […] The inclusion of compounds in the categories of the Tables disclosed herein, including this Table, is not to be seen as limiting, in that compounds included in such Tables have at least the activity shown for inclusion in the Table and may have more or other activities. Nor are the Tables to be seen as limiting in that these are the only compounds disclosed herein that have that activity, representative compounds are shown in the Tables that have at least that particular activity for inclusion in the Table. One or more compounds disclosed herein have at least an activity that has utility in treatment of disease states. Note that any hydrogen atoms that are required for any atom to attain its usual valence in a structure presented in Table 8, whether a carbon atom or a heteroatom, should be inferred if it is not specifically indicated.

[2] = observed in the proliferation assay

melting point: 81 °C
SMILES: COc1ccc(Nc2nc(NN3CCCCCC3)nc(N(C)C3CCNCC3)n2)cc1Cl

SMILES: COc1ccc(Nc2nc(NC3CCCCCC3)nc(N3CCCC3CO)n2)cc1Cl (centres unmarked)
Proliferation Data (result in words) ([1]; 5 & 10 uM screens): Did not pass | cell morphology change / cell death observed under Proliferation Data (words with concentration) (cells; [2]): rounding | Inflammation Data (result in words) (IL6; concentration not given): Not Active

SMILES: COc1ccc(Nc2nc(NC3CCCCCC3)nc(N3CCN(C)CC3)n2)cc1Cl
Proliferation Data (result in words) ([1]; 5 & 10 uM screens): Did not pass | cell death under Inflammation Data (cells; at 5 uM): 25% | cell death under Inflammation Data (cells; at 10 uM): total cell death | cell morphology change / cell death observed under Proliferation Data (words with concentration) (cells; [2]): blunting androunding | inhibition at 10 µM (IL6; at 10 uM): 75%

SMILES: CCc1occc(=O)c1Oc1nc(Nc2ccc(OC)c(Cl)c2)nc(NC2CCCCCC2)n1
Proliferation Data (result in words) ([1]; 5 & 10 uM screens): Not active at 5 & 10 uM | cell death under Inflammation Data (cells; at 10 uM): 20% | inhibition at 10 µM (IL6; at 10 uM): 48%

SMILES: COc1ccc(Nc2nc(NC3CCCCCC3)nc(OC3CCCNC3)n2)cc1Cl (centres unmarked)
IC50 [1]: 4.9 µM | cell death under Inflammation Data (cells; at 10 uM): 20% | inhibition at 10 µM (IL6; at 10 uM): 60%

SMILES: COc1ccc(Nc2nc(NC3CCCCCC3)nc(OC3CCNCC3)n2)cc1Cl
IC50 [1]: 1.85 µM | cell death under Inflammation Data (cells; at 10 uM): 20% | inhibition at 10 µM (IL6; at 10 uM): 85%

SMILES: COc1ccc(Nc2nc(NC3CCCCCC3)nc(OCC3CCCN3C)n2)cc1Cl (centres unmarked)
IC50 [1]: 5.25 µM | cell death under Inflammation Data (cells; at 10 uM): total cell death | Inflammation Data, inhibition (IL6; at 10 uM): complete inhibition

SMILES: COc1ccc(Nc2nc(NC3CCCCCC3)nc(OC3CCN(C)CC3)n2)cc1Cl
cell death under Inflammation Data (cells; at 10 uM): total cell death | cell morphology change / cell death observed under Proliferation Data (words with concentration) (cells; [2]): rounding at 5 & 10 uM | inhibition at 10 µM (IL6; at 10 uM): 95%

SMILES: CN1CCC(N(C)c2nc(Nc3ccc(OCc4ccccc4)c(Cl)c3)nc(NC3CCCCCC3)n2)CC1
cell death under Inflammation Data (cells; 5 uM): 30% | cell death under Inflammation Data (cells; 10 uM): totaldeath | Inflammation Data (result in words) (IL6; at 1 uM): Not active

SMILES: CN(c1nc(Nc2ccc(OCc3ccccc3)c(Cl)c2)nc(NC2CCCCCC2)n1)C1CCNCC1
cell death under Inflammation Data (cells; 5 uM): 50% | cell death under Inflammation Data (cells; 10 uM): total cell death | Inflammation Data (result in words) (IL6; at 1 uM): not active | inhibition at 5 µM (IL6; at 5 uM): 58%

SMILES: CN(c1nc(Nc2ccc(O)cc2)nc(NC2CCCCCC2)n1)C1CCNCC1
cell death under Inflammation Data (cells; 5 uM): 20% | cell death under Inflammation Data (cells; 10 uM): total cell death | inhibition at 5 µM (IL6; at 5 uM): 50%

SMILES: COc1ccc(Nc2nc(NC3CCCCCC3)nc(NC3CCN(Cc4ccccc4)CC3)n2)cc1F
cell death under Inflammation Data (cells; at 5 uM): 25% | cell death under Inflammation Data (cells; at 10 uM): total cell death | cell morphology change / cell death observed under Proliferation Data (words with concentration) (cells; [2]): cell bluntingat 3 uM; also recorded: rounding at 5uM | inhibition at 5 µM (IL6; at 5 uM): 43% | inhibition at 10 µM (IL6; at 10 uM): 97%

SMILES: COc1ccc(Nc2nc(NC3CCCCCC3)nc(NC3CCNCC3)n2)cc1
cell death under Inflammation Data (cells; at 5 uM): 20% | cell death under Inflammation Data (cells; at 10 uM): > 50% | inhibition at 5 µM (IL6; at 5 uM): 69% | inhibition at 10 µM (IL6; at 10 uM): 88%

SMILES: COc1ccc(Nc2nc(Cl)nc(Nc3ccc(OC)c(F)c3)n2)cc1F
Proliferation Data (result in words) ([1]; concentration not given): Not active | Inflammation Data, inhibition (IL6; at 5 uM): noeffect | inhibition at 10 µM (IL6; at 10 uM): 20%

melting point: 78 to 80 °C
SMILES: COc1ccc(Nc2nc(NC3CCCCCC3)nc(N3CCSCC3)n2)cc1Cl

melting point: 98 °C
SMILES: COc1ccc(Nc2nc(Cl)nc(OCC3CCCCC3)n2)cc1F [Compound 114, (4-Chloro-6-cyclohexylmethoxy-[1,3,5]triazin-2-yl)-(3-fluoro-4-methoxy-phenyl)-amine]

melting point: 181 °C
SMILES: COc1ccc(Nc2nc(Nc3ccc(OC)c(F)c3)nc(OCC3CCCCC3)n2)cc1F [Compound 115, 6-Cyclohexylmethoxy-N,N′-bis-(3-fluoro-4-methoxy-phenyl)-1,3,5-triazine-2,4-diamine]

melting point: 59 °C
SMILES: CCN1CCCC1CNc1nc(Nc2ccc(OC)c(F)c2)nc(OCC2CCCCC2)n1 (centres unmarked) [Compound 116, 6-Cyclohexylmethoxy-N-(1-ethyl-pyrrolidin-2-ylmethyl)-N′-(3-fluoro-4-methoxy-phenyl)-[1,3,5]triazine-2,4-diamine]

melting point: 114 °C
SMILES: COc1ccc(Nc2nc(Cl)nc(OCC3CCCCC3)n2)cc1Cl [Compound 117, (4-Chloro-6-cyclohexylmethoxy-[1,3,5]triazin-2-yl)-(3-chloro-4-methoxy-phenyl)-amine]

melting point: 188 °C
SMILES: COc1ccc(Nc2nc(Nc3ccc(OC)c(Cl)c3)nc(OCC3CCCCC3)n2)cc1Cl [Compound 118, N,N′-Bis-(3-chloro-4-methoxy-phenyl)-6-cyclohexylmethoxy-1,3,5-triazine-2,4-diamine]

melting point: 183 °C
SMILES: COc1ccc(Nc2nc(Nc3ccc(OC)c(Cl)c3)nc(NC3CCCCCC3)n2)cc1Cl [Compound 122, N,N′-Bis-(3-chloro-4-methoxy-phenyl)-N″-cycloheptyl-[1,3,5]triazine-2,4,6-triamine]

melting point: 134 °C
SMILES: COc1ccc(Nc2nc(Cl)nc(Cl)n2)cc1F [Compound 124, (4,6-Dichloro-[1,3,5]triazin-2-yl)-(3-fluoro-4-methoxy-phenyl)-amine]

SMILES: CCN1CCCC1CNc1nc(NCC2CCCCC2)nc(Nc2ccc(OC)c(F)c2)n1 (centres unmarked) [Compound 126, N-Cyclohexylmethyl-N′-(1-ethyl-pyrrolidin-2-ylmethyl)-N″-(3-fluoro-4-methoxy-phenyl)-[1,3,5]triazine-2,4,6-triamine]
melting point: 72 °C

melting point: > 310 °C
SMILES: COc1ccc(Nc2nc(O)nc(NC3CCCCCC3)n2)cc1Cl [Compound 147, 4-(3-Chloro-4-methoxy-phenylamino)-6-cycloheptylamino-1,3,5-triazin-2-ol]

melting point: 138 to 140 °C
SMILES: COc1ccc(Nc2nc(NC3CCCCCC3)nc(OC3CCCN(C(C)=O)C3)n2)cc1Cl (centres unmarked) [Compound E20, 1-[3-{4-(3-chloro-4-methoxyanilino)-6-cycloheptylamino-1,3,5-triazine-2-yloxy}piperidino]-1-ethanone]

melting point: 136 to 138 °C
SMILES: COc1ccc(Nc2nc(NC3CCCCCC3)nc(OC(C)C)n2)cc1Cl [Compound E21, N^2-(3-chloro-4-methoxyphenyl)-N^4-cycloheptyl-6-isopropoxy-1,3,5-triazine-2,4-diamine]

SMILES: COc1ccc(Nc2nc(NC3CCCCCC3)nc(OC3CCCN(C(C)=O)C3)n2)cc1Cl (centres unmarked) [drawing 992]
Proliferation Data (result in words) ([1]; 5 & 10 uM screens): Not active at 5 & 10 uM | Inflammation Data, inhibition (IL6; at 10 uM): complete inhibition at 10 uM

SMILES: COc1ccc(Nc2nc(NC3CCCCCC3)nc(OC(C)C)n2)cc1Cl [drawing 993]
Proliferation Data (result in words) ([1]; concentration not given): Not active | inhibition at 10 µM (IL6; at 10 uM): < 25%

SMILES: COc1ccc(Nc2nc(NC3CCCCCC3)nc(OCC3CCCN3)n2)cc1Cl (centres unmarked) [drawing 994]
Proliferation Data (result in words) ([1]; 5 & 10 uM screens): Not active at 5 & 10 uM | inhibition at 10 µM (IL6; at 10 uM): 75%

SMILES: COc1ccc(Nc2nc(NC3CCCCCC3)nc(N3CCSCC3)n2)cc1Cl [drawing 999]
Proliferation Data (result in words) ([1]; concentration not given): Not active | Inflammation Data (result in words) (IL6; concentration not given): Not Active

SMILES: COc1ccc(Nc2nc(NC3CCCCCC3)nc(Oc3ccccc3F)n2)cc1Cl [drawing 1000]
Proliferation Data (result in words) ([1]; concentration not given): Not active | Inflammation Data (result in words) (IL6; concentration not given): Not Active

SMILES: CN1CCC(N(C)c2nc(Nc3ccc(O)c(Cl)c3)nc(NC3CCCCCC3)n2)CC1 [drawing 1008]
cell death under Inflammation Data (cells; 10 uM): total cell death | cell morphology change / cell death observed under Proliferation Data (words with concentration) (cells; human, 24 h): cell bluntingat 3 to 10 uM | inhibition at 5 µM (IL6; at 5 uM): 64% | inhibition at 10 µM (IL6; at 10 uM): 84%

SMILES: COc1ccc(Nc2nc(NC3CCCCCC3)nc(NC3CCN(Cc4ccccc4)CC3)n2)cc1Cl [drawing 1010]
cell death under Inflammation Data (cells; at 5 uM): 20% | cell death under Inflammation Data (cells; at 10 uM): > 50% | cell morphology change / cell death observed under Proliferation Data (words with concentration) (cells; [2]): cell blunting at 1 uM; also recorded: rounding at 5 uM | inhibition at 5 µM (IL6; at 5 uM): 37% | inhibition at 10 µM (IL6; at 10 uM): 41%

Reference: patent publication US7169785B2, “Methods and compositions of novel triazine compounds” (Reddy US Therapeutics, Inc., priority 2001, dated 2007)
